Values of other authors as cited in patent US12653831B2, “Methods for the non-toxic treatment for opioid drug withdrawal combining noribogaine and cannabinoids” (priority 2019, dated 2026).
Where two headings read alike, the source gives them in different places.

Experiments:
primary microglia = settings: for sensitivity of the induced migration to cannabinoid receptor antagonists: with CB(1)/CB(2) antagonists
N13 microglial cells = settings: ATP 400 μM, cultured N13 microglial cells
rat primary microglia = settings: ATP 400 μM
β-amyloid-injected mice = settings: subchronic administration for 3 weeks
CB2 receptors = CB2 receptors (Homo sapiens, UniProt P34972)
CB2 receptors, sequence (P34972 whole entry): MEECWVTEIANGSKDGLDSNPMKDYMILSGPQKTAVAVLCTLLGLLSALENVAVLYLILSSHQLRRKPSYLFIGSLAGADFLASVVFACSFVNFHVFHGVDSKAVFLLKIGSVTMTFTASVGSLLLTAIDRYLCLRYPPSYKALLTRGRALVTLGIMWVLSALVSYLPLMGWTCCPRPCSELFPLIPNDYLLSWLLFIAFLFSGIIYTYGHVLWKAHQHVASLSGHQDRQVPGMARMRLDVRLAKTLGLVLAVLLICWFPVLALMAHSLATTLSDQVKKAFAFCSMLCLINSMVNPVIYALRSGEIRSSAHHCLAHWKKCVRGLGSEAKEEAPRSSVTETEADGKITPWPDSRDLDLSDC

[1] = high doses, various animal models
[2] = not given; remark: listed apart in the source

Structure (SMILES): C=C(C)[C@@H]1CCC(C)=C[C@H]1c1c(O)cc(CCCCC)cc1O [CBD, cannabidiol]
- effect on primary microglia migration (primary microglia): promoted
- sensitivity of the induced migration to cannabinoid receptor antagonists (primary microglia): blocked by CB(1) and/or CB(2) antagonists
- effect on ATP-induced increase in intracellular calcium ([Ca(2+)](i)) (N13 microglial cells): concentration-dependently decreased
- effect on ATP-induced increase in intracellular calcium ([Ca(2+)](i)) (rat primary microglia): concentration-dependently decreased
- tolerability (in humans): well tolerated without side effects
- psychoactive or cognitive effects (in vivo): does not induce psychoactive or cognitive effects
- cytokine gene expression (β-amyloid-injected mice): able to prevent
- learning of a spatial navigation task (β-amyloid-injected mice): able to prevent
- binding to CB2 receptors (CB2 receptors): binds very weakly

Structure (SMILES): CCCCCCC(C)(C)c1cc(OC)c([C@@H]2C=C(CO)[C@@H]3C[C@H]2C3(C)C)c(OC)c1 [HU-308]
- effect on primary microglia migration (primary microglia): induced
- sensitivity of the induced migration to cannabinoid receptor antagonists (primary microglia): blocked by a CB(2) antagonist only
- effect on ATP-induced increase in intracellular calcium ([Ca(2+)](i)) (N13 microglial cells): without effect
- effect on ATP-induced increase in intracellular calcium ([Ca(2+)](i)) (rat primary microglia): without effect

Structure (SMILES): Cc1c(C(=O)c2cccc3ccccc23)c2cccc3c2n1[C@H](CN1CCOCC1)CO3 [WIN 55,212-2, (R)-(+)-[2,3-dihydro-5-methyl-3-(4-morpholinylmethyl)pyrrolo-[1,2,3-d,e]-1,4-benzoxazin-6-yl]-1-naphthalenyl-methanone]
- effect on primary microglia migration (primary microglia): promoted
- sensitivity of the induced migration to cannabinoid receptor antagonists (primary microglia): blocked by CB(1) and/or CB(2) antagonists
- effect on ATP-induced increase in intracellular calcium ([Ca(2+)](i)) (N13 microglial cells): concentration-dependently decreased
- effect on ATP-induced increase in intracellular calcium ([Ca(2+)](i)) (rat primary microglia): concentration-dependently decreased
- cytokine gene expression (β-amyloid-injected mice): able to prevent
- learning of a spatial navigation task (β-amyloid-injected mice): able to prevent

Structure (SMILES): CC[C@H]1CC2C[C@H]3c4[nH]c5ccc(O)cc5c4CCN(C2)C13 [noribogaine, Noribogaine]
- adverse effects in preclinical toxicity studies [1]: serious cardiac and CNS adverse effects
- effect on EKG QTc interval ([2]; dose of 30 mg daily): shortens the QTc interval
- effect on EKG QTc interval ([2]; higher doses (above 60 mg/day)): increase QTc
